pIC50: −log10 of the molar value.
molecular target: T1, Akt1 (Homo sapiens, UniProt P31749); assay: Akt1 kinase assay (33P phosphorylation of biotinylated peptide, Flash plates); type: biochemical; settings: read-out: IC50 (AKT1 inhibition)
T1 construct: made in house; host or cells: Sf9 insect cells (baculovirus, pBlueBacHis2B)
Description: The assay described below measures the phosphorylation of a biotinylated peptide by active recombinant Akt1 and other kinase isoforms. The biotinylated peptide contains a consensus sequence derived from Akt substrate Gsk3 (Glycogen synthase kinase 3). The ^33P-labeled peptide substrate was captured by streptavidin-coated Flash plates.
Active recombinant Akt1 was expressed in Sf9 insect cells and purified as described by Kumar et al., Biochim. Biophys. Acta. Jun. 15, 2001, 1526(3), 257-268. Biotinylated peptide of the sequence Bio-ahx-RPRAASF was purchased from Syn Pep (Dublin, Calif., USA).
Cloning and Expression of Human Akt1 Sf9 Cells
Human Akt1 cDNA was amplified from a marathon-ready human lung cDNA library (Clonetech) using nested oligo primers as described below. The first round of amplification was carried out using the following primers; Akt1F1 ([…]) and Akt1R1 (TCCATC […]) and for the second round amplification, the primers of the following sequence were used; Akt1F2 (GGATCCTCGG […]) and AKT1R2 (GGTACCATCGTC […]). The PCR product was subcloned into pCRScript plasmid as a BamHI/KpnI fragment and the sequence of the cDNA was confirmed by DNA sequencing. This plasmid was used as a template for reamplification of Akt1 using appropriate primers for subcloning into pBlueBaHis2B into BamH1/EcoRI sites to generate an in frame fusion to (His)6 tag and an anti-Xpress antibody epitope tag at the N-terminus. This construct was sequenced to verify the junction sequences and used for generating a recombinant baculovirus. Growth of the recombinant virus, amplification and determination of viral titer were carried out according to the instructions from the manufacturer (InVitrogen, CA).
Purification of Akt1 from Sf9 Cells
Viral stocks were used to infect large scale Sf9 cells at a multiplicity of infection (MOI) of 2.5. Cells were maintained at 27° C. for 60 h and okadaic acid was added to the cultures to a concentration of 50 nM. Cells were harvested 4 h hours later by centrifugation at 1200 rpm for 30 min followed by freezing at −80° C. until further use. All purification steps were carried out at 4° C. Whole cell pellets were suspended in buffer A (20 mM sodium phosphate buffer pH 7.8, 500 mM NaCl, 1 mM sodium vanadate, 5 mM sodium fluoride, 40 mM β-glycerophosphate, 10 mM imidazole and protease inhibitor cocktail) and lysed using a microfluidizer. The cell extract was centrifuged at 16,000×g for 10 min to remove the debris and directly loaded onto Ni-NTA Superflow resin using a FPLC pump operated at 1 ml/min. The column was washed once with buffer A, once with wash buffer B (20 mM sodium phosphate pH 6.0, 1 mM sodium vanadate, 5 mM sodium fluoride and protease cocktail) and once with wash buffer B containing 0.05% Tween-20 followed by washing with buffer A until OD260 returned to basal level. Proteins were eluted with buffer A containing 200 mM imidazole. Fractions were analyzed by electrophoresis on 10% denaturing polyacrylamide gels and fractions containing 85% pure protein band at 60 KDa were pooled and dialyzed against buffer C (20 mM Tris-HCl pH 7.5, 0.5 mM EDTA,-2 mM DTT, 145 mM NaCl, 0.1 mM sodium vanadate, 5 mM sodium fluoride, 10 mM, β-glycerophosphate and 20% glycerol). Purified protein was stored as aliquots at −80° C. Protein concentrations were determined using BCA protein assay reagent A (Catalog #23228). To examine the identity of the proteins, 2 μg of purified protein was electrophoresed on SDS-polyacrylamide gels and stained with coomassie blue dye or transferred to nitrocellulose membrane and probed with anti-Akt and anti-phospho-specific Akt antibodies using enhanced chemiluminescence (ECL) reagent according to the protocol described by the manufacturer (Amersham).
The kinase assay was performed in 96 well plates at room temperature. Assay solutions and plates were preincubated at room temperature for 5 min. […]

T1 sequence (P31749 whole entry): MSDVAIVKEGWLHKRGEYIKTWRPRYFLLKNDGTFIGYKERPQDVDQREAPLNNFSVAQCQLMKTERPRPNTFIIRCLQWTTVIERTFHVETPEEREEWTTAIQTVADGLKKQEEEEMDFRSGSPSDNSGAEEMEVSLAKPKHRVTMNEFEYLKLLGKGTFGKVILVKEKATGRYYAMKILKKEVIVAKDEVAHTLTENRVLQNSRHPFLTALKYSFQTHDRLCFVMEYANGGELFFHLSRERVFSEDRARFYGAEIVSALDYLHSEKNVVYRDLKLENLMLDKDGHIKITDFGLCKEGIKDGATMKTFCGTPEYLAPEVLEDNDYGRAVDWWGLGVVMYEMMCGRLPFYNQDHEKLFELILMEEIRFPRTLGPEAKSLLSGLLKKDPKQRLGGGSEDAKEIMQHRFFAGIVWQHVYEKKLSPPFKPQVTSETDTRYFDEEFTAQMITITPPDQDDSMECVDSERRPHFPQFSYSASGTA

| pIC50 | SMILES |
| --- | --- |
| 8.87 | Cc1n[nH]c2ccc(-c3nnc(CCc4ccccc4)c(N4CCN[C@@H](C(C)C)C4)n3)cc12 [Compound 93, 5-[(S)-3-isopropylpiperazin-1-yl]-3-(3-methylindazol-5-yl)-6-phenethyl-[1,2,4]triazine] |

same assay, conditions: read-out: IC50 rating (AKT1 inhibition)

| pIC50 | SMILES |
| --- | --- |
| 6.00 to 7.00 | Cc1n[nH]c2ccc(-c3nncc(N4CCC(Cc5ccccc5)C4)n3)cc12 (stereo not drawn) [Compound 69, 3-(3-methylindazol-5-yl)-5-(3-benzylpyrrolidin-1-yl)-[1,2,4]triazine] |
| < 6.00 | c1ccc(C[C@H]2CN(c3cnnc(-c4ccc5[nH]nc(-c6ccccc6)c5c4)n3)CCN2)cc1 [Compound 70, 5-[(S)-3-benzylpiperazin-1-yl]-3-(3-phenylindazol-5-yl)-[1,2,4]triazine] |
| 6.00 to 7.00 | c1ccc(-c2n[nH]c3ccc(-c4nncc(N5CCNCC5)n4)cc23)cc1 [Compound 71, 3-(3-phenylindazol-5-yl)-5-piperazin-1-yl-[1,2,4]triazine] |
| < 6.00 | CC(C)C[C@H]1CN(c2cnnc(-c3ccc4[nH]nc(-c5ccccc5)c4c3)n2)CCN1 [Compound 72, 5-[(S)-3-isobutylpiperazin-1-yl]-3-(3-phenylindazol-5-yl)-[1,2,4]triazine] |
| 6.00 to 7.00 | Cc1n[nH]c2ccc(-c3nncc(N4CCN[C@@H](C(C)(C)C)C4)n3)cc12 [Compound 73, 3-(3-methylindazol-5-yl)-5-[(S)-3-tert-butylpiperazin-1-yl]-[1,2,4]triazine] |
| 6.00 to 7.00 | Cc1ccccc1CC1CN(c2cnnc(-c3ccc4[nH]ncc4c3)n2)CCN1 (stereo not drawn) [Compound 74, 3-indazol-5-yl-5-[3-(2-methylbenzyl)piperazin-1-yl]-[1,2,4]triazine] |
| < 6.00 | c1cc2[nH]nc(C3CC3)c2cc1-c1nncc(N2CCNCC2)n1 [Compound 75, 3-(3-cyclopropylindazol-5-yl)-5-piperazin-1-yl-[1,2,4]triazine] |
| 6.00 to 7.00 | CC(C)C[C@H]1CN(c2cnnc(-c3ccc4[nH]nc(C5CC5)c4c3)n2)CCN1 [Compound 76, 3-(3-cyclopropylindazol-5-yl)-5-[(S)-3-isobutylpiperazin-1-yl]-[1,2,4]triazine] |
| 6.00 to 7.00 | c1ccc(C[C@H]2CN(c3cnnc(-c4ccc5[nH]nc(C6CC6)c5c4)n3)CCN2)cc1 [Compound 77, 5-[(S)-3-benzylpiperazin-1-yl]-3-(3-cyclopropylindazol-5-yl)-[1,2,4]triazine] |
| < 6.00 | CCc1n[nH]c2ccc(-c3nncc(N4CCNCC4)n3)cc12 [Compound 78, 3-(3-ethylindazol-5-yl)-5-piperazin-1-yl-[1,2,4]triazine] |
| 6.00 to 7.00 | CCc1n[nH]c2ccc(-c3nncc(N4CCN[C@@H](CC(C)C)C4)n3)cc12 [Compound 79, 3-(3-ethylindazol-5-yl)-5-[(S)-3-isobutylpiperazin-1-yl]-[1,2,4]triazine] |
| > 7.00 | CCc1n[nH]c2ccc(-c3nncc(N4CCN[C@@H](Cc5ccccc5)C4)n3)cc12 [Compound 80, 5-[(S)-3-benzylpiperazin-1-yl]-3-(3-ethylindazol-5-yl)-[1,2,4]triazine] |
| > 7.00 | Cc1n[nH]c2ccc(-c3nnc(N)c(N4CCN[C@@H](C(C)(C)C)C4)n3)cc12 [Compound 81, 6-amino-3-(3-methylindazol-5-yl)-5-[(S)-3-tert-butylpiperazin-1-yl]-[1,2,4]triazine] |
| 6.00 to 7.00 | Cc1n[nH]c2ccc(-c3nnc(N)c(N4CCNC5(CCCCC5)C4)n3)cc12 [Compound 82, 6-amino-5-(1,4-diaza-spiro[5.5]undec-4-yl)-3-(3-methylindazol-5-yl)-[1,2,4]triazine] |
| 6.00 to 7.00 | Cc1n[nH]c2ccc(-c3nnc(N)c(N4CCC(N)C4)n3)cc12 (stereo not drawn) [Compound 83, 6-amino-5-(3-aminopyrrolidin-1-yl)-3-(3-methylindazol-5-yl)-[1,2,4]triazine] |
| 6.00 to 7.00 | CNC1CCN(c2nc(-c3ccc4[nH]nc(C)c4c3)nnc2N)C1 (stereo not drawn) [Compound 84, 6-amino-5-(3-methylaminopyrrolidin-1-yl)-3-(3-methylindazol-5-yl)-[1,2,4]triazine] |
| 6.00 to 7.00 | Cc1n[nH]c2ccc(-c3nnc(N)c(N4CCNC5(CCCC5)C4)n3)cc12 [Compound 85, 6-amino-5-(6,9-diaza-spiro[4.5]dec-9-yl)-3-(3-methylindazol-5-yl)-[1,2,4]triazine] |
| > 7.00 | Cc1n[nH]c2ccc(-c3nnc(CCc4ccccc4)c(N4CCNCC4)n3)cc12 [Compound 92, 3-(3-methylindazol-5-yl)-6-phenethyl-5-(piperazin-1-yl)-[1,2,4]triazine] |
| > 7.00 | Cc1n[nH]c2ccc(-c3nnc(CCc4ccccc4)c(N4CCN[C@@H](C(C)C)C4)n3)cc12 [Compound 93, 5-[(S)-3-isopropylpiperazin-1-yl]-3-(3-methylindazol-5-yl)-6-phenethyl-[1,2,4]triazine] |
| > 7.00 | CCC[C@H]1CN(c2nc(-c3ccc4[nH]nc(C)c4c3)nnc2CCc2ccccc2)CCN1 [Compound 94, 3-(3-methylindazol-5-yl)-6-phenethyl-5-[(S)-3-propylpiperazin-1-yl]-[1,2,4]triazine] |

Source: US7528132B2, “Kinase inhibitors” (Schering Corporation, priority 2005, dated 2009)
